Experimental data: patent US20260174878A1, “IRAK4 DEGRADATION AGENT AND USE THEREOF” (LEADINGTAC PHARMACEUTICAL (SHAOXING) CO., LTD., priority 2022, published 2026)

Target: T1, IRAK4 protein in normal human PBMCs (Homo sapiens, UniProt Q9NWZ3)
T1 construct: host or cells: normal human PBMCs
T1 sequence (Q9NWZ3 1-460): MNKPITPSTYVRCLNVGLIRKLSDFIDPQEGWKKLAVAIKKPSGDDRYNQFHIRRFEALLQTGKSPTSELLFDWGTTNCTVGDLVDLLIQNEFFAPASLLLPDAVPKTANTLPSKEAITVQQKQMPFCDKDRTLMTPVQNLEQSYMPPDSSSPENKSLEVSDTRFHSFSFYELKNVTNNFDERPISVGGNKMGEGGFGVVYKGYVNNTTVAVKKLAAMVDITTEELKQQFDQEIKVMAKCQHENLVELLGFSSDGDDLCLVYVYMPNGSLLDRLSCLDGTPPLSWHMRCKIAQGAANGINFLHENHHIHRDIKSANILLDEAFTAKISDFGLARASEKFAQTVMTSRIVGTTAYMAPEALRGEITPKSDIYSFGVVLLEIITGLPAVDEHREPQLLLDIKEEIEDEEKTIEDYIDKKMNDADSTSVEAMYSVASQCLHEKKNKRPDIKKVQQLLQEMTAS
Experiment: Degradation of IRAK4 protein in normal human PBMCs (AlphaLISA)
Assay type: cell-based
Settings: 24 h incubation
Protocol: The cryopreserved normal human PBMCs (Milestone, PB010C) were thawed and resuspended in RPMI 1640 medium (Gibco, A1049101) supplemented with 10% fetal bovine serum (Gibco, 10099141), 100 U/mL penicillin, and 100 µg/mL streptomycin (Gibco, 15140122). After 0.95 mL of cells were plated in each well of a 24-well cell culture plate, 50 µL of diluted compound solution was added to corresponding wells with cells, such that the final concentration of the compound fell within the range of 0.01-3000 nM. The final concentration of DMSO was 0.25%. After the compound-treated cell plate was incubated in an incubator at 37° C. with 5% CO2 for 24 h, the cells were collected into 1.5 mL centrifuge tubes and centrifuged at 1000 rpm at 4° C. for 5 min. The cell pellets were washed twice with 1×DPBS. The resuspended cells were lysed with 100 μL of lysis buffer, left to stand on ice for 30 min, and then centrifuged at 14000 g at 4° C. for 10 min. The samples of the cell lysate supernatant after centrifugation were cryopreserved at −80° C. before testing. The cell lysis buffer was a Western and IP cell lysis buffer (Beyotime, P0013) supplemented with 1 mM phenylmethylsulfonyl fluoride and a protease inhibitor cocktail (Beyotime, P1008).
The total protein concentrations of the cell lysate samples were determined using a BCA protein quantification kit (Tiangen, PA115-02).
The prepared PBMC lysate samples were assayed for IRAK4 concentrations using a human IRAK4 AlphaLISA assay kit (PerkinElmer, AL3117C) to determine the degradation effects of the compounds on IRAK4. The method is as follows:
5 μL of each of IRAK4 standard solutions with different concentrations and test samples of cell lysate supernatant were added to a white 384-well plate (PerkinElmer, 6007299), and then 10 μL of 5× anti-IRAK4 […] beads was added to each well (final concentration of 10 μg/mL). The plate was incubated at room temperature for 30 min. Then 10 μL of 5× biotin-labeled anti-IRAK4 antibody was added to each well (final concentration of 1 nM), and the plate was incubated at room temperature for another 60 min. Finally, 25 μL of 2× streptavidin-labeled donor beads was added to each well (final concentration of 40 μg/mL), and the plate was incubated at room temperature for another 30 min. After the incubation was completed, AlphaLISA signal values were measured on a microplate reader EnVision (PerkinElmer, 2105) in the AlphaScreen standard mode. A standard curve was plotted from the AlphaLISA signal values of the IRAK4 standard solutions with different concentrations, and the IRAK4 concentration of each cell lysate supernatant was determined according to the corresponding concentrations on the standard curve for the AlphaLISA signal values of the test samples and by performing corresponding correction on the total protein concentration of each sample obtained by BCA quantification. The degradation rates for the compounds at each concentration were calculated by comparing the IRAK4 concentration with that of the control group. Then non-linear curve fittings for logarithmic concentration-inhibition rate were performed using GraphPad Prism 8, and the DC50 and Dmax values of the compound were obtained.

DC50 [nM]	Dmax [%]	Compound
0.84	99.2	O=C1CCN(c2cc(C(=O)N3CCC(OCCCN4CCC(n5cc(NC(=O)c6cnn7ccc(N8C[C@H]9C[C@@H]8CO9)nc67)c(C(F)F)n5)CC4)CC3)ccc2Cl)C(=O)N1 [Example 31, 5-((1R,4R)-2-oxa-5-azabicyclo[2.2.1]heptan-5-yl)-N-(1-(1-(3-((1-(4-chloro-3-(2,4-dioxotetrahydropyrimidin-1(2H)-yl)benzoyl)piperidin-4-yl)oxy)propyl)piperidin-4-yl)-3-(difluoromethyl)-1H-pyrazol-4-yl)pyrazolo[1,5-a]pyrimidine-3-carboxamide]
0.53	98.2	O=C1CCN(c2cc(C(=O)N3CCC4(CCC(CN5CCC(n6cc(NC(=O)c7cnn8ccc(N9CCS(=O)(=O)CC9)nc78)c(C(F)F)n6)CC5)CC4)CC3)ccc2Cl)C(=O)N1 [Example 29, N-(1-(1-((3-(4-chloro-3-(2,4-dioxotetrahydropyrimidin-1(2H)-yl)benzoyl)-3-azaspiro[5.5]undecan-9-yl)methyl)piperidin-4-yl)-3-(difluoromethyl)-1H-pyrazol-4-yl)-5-(1,1-dioxothiomorpholinyl) pyrazolo[1,5-a]pyrimidine-3-carboxamide]
0.48	96.2	Cc1ccc(C(=O)N2CCC3(CCC(CN4CCC(n5cc(NC(=O)c6cnn7ccc(N8CC9(COC9)C8)nc67)c(C(F)F)n5)CC4)CC3)CC2)cc1N1CCC(=O)NC1=O [Example 24, N-(3-(difluoromethyl)-1-(1-((3-(3-(2,4-dioxotetrahydropyrimidin-1(2H)-yl)-4-methylbenzoyl)-3-azaspiro[5.5]undecan-9-yl)methyl)piperidin-4-yl)-1H-pyrazol-4-yl)-5-(2-oxa-6-azaspiro[3.3]heptan-6-yl)pyrazolo[1,5-a]pyrimidine-3-carboxamide]
0.53	98.1	Cc1ccc(C(=O)N2CCC3(CCC(CN4CCC(n5cc(NC(=O)c6cnn7ccc(N8CCS(=O)(=O)CC8)nc67)c(C(F)F)n5)CC4)CC3)CC2)cc1N1CCC(=O)NC1=O [Example 22, N-(3-(difluoromethyl)-1-(1-((3-(3-(2,4-dioxotetrahydropyrimidin-1(2H)-yl)-4-methylbenzoyl)-3-azaspiro[5.5]undecan-9-yl)methyl)piperidin-4-yl)-1H-pyrazol-4-yl)-5-(1,1-dioxothiomorpholinyl)pyrazolo[1,5-a]pyrimidine-3-carboxamide]
0.35	97.8	O=C1CCN(c2cc(C(=O)N3CCC4(CCC(CN5CCC(n6cc(NC(=O)c7cnn8ccc(N9CCC[C@H](O)C9)nc78)c(C(F)F)n6)CC5)CC4)CC3)ccc2Cl)C(=O)N1 [Example 26, (S)—N-(1-(1-((3-(4-chloro-3-(2,4-dioxotetrahydropyrimidin-1(2H)-yl)benzoyl)-3-azaspiro[5.5]undecan-9-yl)methyl)piperidin-4-yl)-3-(difluoromethyl)-1H-pyrazol-4-yl)-5-(3-hydroxypiperidin-1-yl)pyrazolo[1,5-a]pyrimidine-3-carboxamide]
0.37	98	O=C1CCN(c2cc(C(=O)N3CCC4(CCC(CN5CCC(n6cc(NC(=O)c7cnn8ccc(N9CCOCC9)nc78)c(C(F)F)n6)CC5)CC4)CC3)ccc2F)C(=O)N1 [Example 12, N-(3-(difluoromethyl)-1-(1-((3-(3-(2,4-dioxotetrahydropyrimidin-1(2H)-yl)-4-fluorobenzoyl)-3-azaspiro[5.5]undecan-9-yl)methyl)piperidin-4-yl)-1H-pyrazol-4-yl)-5-morpholinopyrazolo[1,5-a]pyrimidine-3-carboxamide]
0.28	97.7	COc1ccc(C(=O)N2CCC3(CCC(CN4CCC(n5cc(NC(=O)c6cnn7ccc(N8C[C@H]9C[C@@H]8CO9)nc67)c(C(F)F)n5)CC4)CC3)CC2)cc1N1CCC(=O)NC1=O [Example 3, 5-((1R,4R)-2-oxa-5-azabicyclo[2.2.1]heptan-5-yl)-N-(3-(difluoromethyl)-1-(1-((3-(3-(2,4-dioxotetrahydropyrimidin-1(2H)-yl)-4-methoxybenzoyl)-3-azaspiro[5.5]undecan-9-yl)methyl)piperidin-4-yl)-1H-pyrazol-4-yl)pyrazolo[1,5-a]pyrimidine-3-carboxamide]
0.32	97.5	Cc1ccc(C(=O)N2CCC3(CCC(CN4CCC(n5cc(NC(=O)c6cnn7ccc(N8CCC[C@H](O)C8)nc67)c(C(F)F)n5)CC4)CC3)CC2)cc1N1CCC(=O)NC1=O [Example 25, (S)—N-(3-(difluoromethyl)-1-(1-((3-(3-(2,4-dioxotetrahydropyrimidin-1(2H)-yl)-4-methylbenzoyl)-3-azaspiro[5.5]undecan-9-yl)methyl)piperidin-4-yl)-1H-pyrazol-4-yl)-5-(3-hydroxypiperidin-1-yl)pyrazolo [1,5-a]pyrimidine-3-carboxamide]
0.45	96.2	Cc1ccc(C(=O)N2CCC3(CCC(CN4CCC(n5cc(NC(=O)c6cnn7ccc(N8C[C@H]9C[C@@H]8CO9)nc67)c(C(F)F)n5)CC4)CC3)CC2)cc1N1CCC(=O)NC1=O [Example 21, 5-((1R,4R)-2-oxa-5-azabicyclo[2.2.1]heptan-5-yl)-N-(3-(difluoromethyl)-1-(1-((3-(3-(2,4-dioxotetrahydropyrimidin-1(2H)-yl)-4-methylbenzoyl)-3-azaspiro[5.5]undecan-9-yl)methyl)piperidin-4-yl)-1H-pyrazol-4-yl)pyrazolo[1,5-a]pyrimidine-3-carboxamide]
0.6	98.8	O=C1CCN(c2cc(C(=O)N3CCC4(CCC(CN5CCC(n6cc(NC(=O)c7cnn8ccc(N9CCNCC9)nc78)c(C(F)F)n6)CC5)CC4)CC3)ccc2Cl)C(=O)N1 [Example 5, N-(1-(1-((3-(4-chloro-3-(2,4-dioxotetrahydropyrimidin-1(2H)-yl)benzoyl)-3-azaspiro[5.5]undecan-9-yl)methyl)piperidin-4-yl)-3-(difluoromethyl)-1H-pyrazol-4-yl)-5-(piperazin-1-yl)pyrazolo[1,5-a]pyrimidine-3-carboxamide]
4.73	107	COc1ccc(C(=O)N2CCC3(CCN(CCCN4CCC(n5cc(NC(=O)c6cnn7ccc(N8CCOCC8)nc67)c(C(F)F)n5)CC4)CC3)CC2)cc1N1CCC(=O)NC1=O [Example 28, N-(3-(difluoromethyl)-1-(1-(3-(9-(3-(2,4-dioxotetrahydropyrimidin-1(2H)-yl)-4-methoxybenzoyl)-3,9-diazaspiro[5.5]undecan-3-yl)propyl)piperidin-4-yl)-1H-pyrazol-4-yl)-5-morpholinopyrazolo[1,5-a]pyrimidine-3-carboxamide]
1	100	N[C@H]1CCCN(c2ccn3ncc(C(=O)Nc4cn(C5CCN(CC6CCC7(CC6)CCN(C(=O)c6ccc(Cl)c(N8CCC(=O)NC8=O)c6)CC7)CC5)nc4C(F)F)c3n2)C1 [Example 30, (S)-5-(3-aminopiperidin-1-yl)-N-(1-(1-((3-(4-chloro-3-(2,4-dioxotetrahydropyrimidin-1(2H)-yl)benzoyl)-3-azaspiro[5.5]undecan-9-yl)methyl)piperidin-4-yl)-3-(difluoromethyl)-1H-pyrazol-4-yl)pyrazolo [1,5-a]pyrimidine-3-carboxamide]
